Where “and” joins values, the source holds several entries; their conditions need not be identical. Equal values may be shown once. Read-outs that look alike come from different tables or passages of the source. Values belong to the compound of their own block, whether it stands above or below them.
Columns and labels:
CCRF-CEM = assay: NCI in vitro five dose anticancer assay; type: cell-based, human
HL-60(TB) = assay: NCI in vitro five dose anticancer assay; type: cell-based, human
SR = assay: NCI in vitro five dose anticancer assay; type: cell-based, human
HOP-92 = assay: NCI in vitro five dose anticancer assay; type: cell-based, human
NCI-H226 = assay: NCI in vitro five dose anticancer assay; type: cell-based, human
NCI-H460 = assay: NCI in vitro five dose anticancer assay; type: cell-based, human
COLO 205 = assay: NCI in vitro five dose anticancer assay; type: cell-based, human
HCC-2998 = assay: NCI in vitro five dose anticancer assay; type: cell-based, human
HCT-116 = assay: NCI in vitro five dose anticancer assay; type: cell-based, human
HT29 = assay: NCI in vitro five dose anticancer assay; type: cell-based, human
KM12 = assay: NCI in vitro five dose anticancer assay; type: cell-based, human
SW-620 = assay: NCI in vitro five dose anticancer assay; type: cell-based, human
SF-268 = assay: NCI in vitro five dose anticancer assay; type: cell-based, human
SF-539 = assay: NCI in vitro five dose anticancer assay; type: cell-based, human
SNB-75 = assay: NCI in vitro five dose anticancer assay; type: cell-based, human
LOX IMVI = assay: NCI in vitro five dose anticancer assay; type: cell-based, human
MALME-3M = assay: NCI in vitro five dose anticancer assay; type: cell-based, human
MDA-MB-435 = assay: NCI in vitro five dose anticancer assay; type: cell-based, human
SK-MEL-2 = assay: NCI in vitro five dose anticancer assay; type: cell-based, human
SK-MEL-5 = assay: NCI in vitro five dose anticancer assay; type: cell-based, human
UACC-257 = assay: NCI in vitro five dose anticancer assay; type: cell-based, human
OVCAR-3 = assay: NCI in vitro five dose anticancer assay; type: cell-based, human
OVCAR-8 = assay: NCI in vitro five dose anticancer assay; type: cell-based, human
NCI/ADR-RES = assay: NCI in vitro five dose anticancer assay; type: cell-based, human
786–0 = assay: NCI in vitro five dose anticancer assay; type: cell-based, human
TK-10 = assay: NCI in vitro five dose anticancer assay; type: cell-based, human
UO-31 = assay: NCI in vitro five dose anticancer assay; type: cell-based, human
MCF7 = assay: NCI in vitro five dose anticancer assay; type: cell-based, human
BT-549 = assay: NCI in vitro five dose anticancer assay; type: cell-based, human
T-47D = assay: NCI in vitro five dose anticancer assay; type: cell-based, human
MDA-MB-468 = assay: NCI in vitro five dose anticancer assay; type: cell-based, human
NCI 60 cell lines = assay: NCI single dose; type: cell-based, human; conditions: 48 h
K-562 cells = assay: Cell cycle analysis by flow cytometry; type: cell-based, human; conditions: 24 h
PI3K-γ = PI3K-γ (Homo sapiens, UniProt P48736); assay: PI3K biochemical assay
[1] = tested on: p53, p21, cyclin B1 and Cdc2 in K-562 cells; assay: Western blotting, p53 and cell cycle regulators; type: cell-based, human; conditions: 1, 3 and 6 μM, western blot; for expression of Cdc2 / expression of cyclin B1 / expression of p21: dose dependent
[2] = tested on: Bcl-2, Bax, and cleaved caspases (3, 8, and 9) in A549 cells; assay: Western blotting, apoptosis markers; type: cell-based, human; conditions: 48 h, 1, 3 and 6 μM, western blot; for levels of Bax / levels of cleaved caspase 3 / levels of cleaved caspase 9: dose-dependent
[3] = tested on: Bax and cleaved caspases (3, 8, and 9) in K-562 cells; assay: Western blotting, apoptosis markers; type: cell-based, human; conditions: 24 h, 1, 3 and 6 μM, western blot; for levels of Bax / levels of cleaved caspase 3 / levels of cleaved caspase 9: dose-dependent
[4] = tested on: p-PI3K, p-Akt, p-mTOR and p-GSK-3β in A549 cells; assay: Western blotting, PI3K/Akt/mTOR pathway; type: cell-based, human; conditions: 1, 3, or 6 μM, western blot, dose-dependent
[5] = tested on: human lung adenocarcinoma A549; assay: Trypan blue exclusion cytotoxicity assay
[6] = tested on: chronic myeloid leukemia K-562; assay: Trypan blue exclusion cytotoxicity assay
PI3K-α = PI3K-α (Homo sapiens, UniProt P42336); assay: PI3K biochemical assay
PI3K-β = PI3K-β (Homo sapiens, UniProt P42338); assay: PI3K biochemical assay
PI3K-δ = PI3K-δ (Homo sapiens, UniProt O00329); assay: PI3K biochemical assay
[7] = Non-small cell lung cancer, five dose assay
[8] = Ovarian cancer, five dose assay
[9] = read-out: A549 (IC50 μM), trypan blue exclusion, 24 h, mean ± SD
[10] = read-out: K-562 (IC50 μM), trypan blue exclusion, 24 h, mean ± SD

PI3K-γ, sequence (P48736 whole entry): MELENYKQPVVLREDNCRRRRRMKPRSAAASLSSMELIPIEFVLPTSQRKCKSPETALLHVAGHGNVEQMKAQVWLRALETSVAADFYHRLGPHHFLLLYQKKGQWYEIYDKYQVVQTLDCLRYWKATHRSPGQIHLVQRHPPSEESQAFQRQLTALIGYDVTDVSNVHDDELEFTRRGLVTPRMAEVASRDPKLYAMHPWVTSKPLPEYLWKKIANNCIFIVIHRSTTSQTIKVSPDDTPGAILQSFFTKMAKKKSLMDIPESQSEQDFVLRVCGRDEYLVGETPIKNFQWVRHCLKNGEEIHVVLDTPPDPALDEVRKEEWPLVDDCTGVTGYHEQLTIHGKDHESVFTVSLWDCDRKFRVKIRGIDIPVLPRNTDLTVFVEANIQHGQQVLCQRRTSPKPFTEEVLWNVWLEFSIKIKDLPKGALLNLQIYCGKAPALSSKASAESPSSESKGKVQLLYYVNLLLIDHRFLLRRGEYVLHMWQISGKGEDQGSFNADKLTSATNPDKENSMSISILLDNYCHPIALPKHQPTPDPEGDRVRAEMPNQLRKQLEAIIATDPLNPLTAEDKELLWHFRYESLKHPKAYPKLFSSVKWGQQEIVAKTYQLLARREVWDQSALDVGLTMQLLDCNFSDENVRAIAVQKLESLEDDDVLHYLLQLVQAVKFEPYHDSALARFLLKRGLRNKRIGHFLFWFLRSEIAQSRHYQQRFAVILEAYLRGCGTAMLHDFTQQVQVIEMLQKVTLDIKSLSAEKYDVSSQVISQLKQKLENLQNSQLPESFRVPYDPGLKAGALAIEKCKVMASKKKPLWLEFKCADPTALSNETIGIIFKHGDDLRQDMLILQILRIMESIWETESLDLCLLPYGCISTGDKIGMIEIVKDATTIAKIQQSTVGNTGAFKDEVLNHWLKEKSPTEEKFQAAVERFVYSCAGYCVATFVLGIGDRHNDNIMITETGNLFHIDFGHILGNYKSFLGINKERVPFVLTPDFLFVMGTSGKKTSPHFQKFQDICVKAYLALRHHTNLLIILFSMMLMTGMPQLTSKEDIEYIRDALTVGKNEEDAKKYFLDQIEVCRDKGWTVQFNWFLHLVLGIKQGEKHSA
PI3K-β, sequence (P42338 whole entry): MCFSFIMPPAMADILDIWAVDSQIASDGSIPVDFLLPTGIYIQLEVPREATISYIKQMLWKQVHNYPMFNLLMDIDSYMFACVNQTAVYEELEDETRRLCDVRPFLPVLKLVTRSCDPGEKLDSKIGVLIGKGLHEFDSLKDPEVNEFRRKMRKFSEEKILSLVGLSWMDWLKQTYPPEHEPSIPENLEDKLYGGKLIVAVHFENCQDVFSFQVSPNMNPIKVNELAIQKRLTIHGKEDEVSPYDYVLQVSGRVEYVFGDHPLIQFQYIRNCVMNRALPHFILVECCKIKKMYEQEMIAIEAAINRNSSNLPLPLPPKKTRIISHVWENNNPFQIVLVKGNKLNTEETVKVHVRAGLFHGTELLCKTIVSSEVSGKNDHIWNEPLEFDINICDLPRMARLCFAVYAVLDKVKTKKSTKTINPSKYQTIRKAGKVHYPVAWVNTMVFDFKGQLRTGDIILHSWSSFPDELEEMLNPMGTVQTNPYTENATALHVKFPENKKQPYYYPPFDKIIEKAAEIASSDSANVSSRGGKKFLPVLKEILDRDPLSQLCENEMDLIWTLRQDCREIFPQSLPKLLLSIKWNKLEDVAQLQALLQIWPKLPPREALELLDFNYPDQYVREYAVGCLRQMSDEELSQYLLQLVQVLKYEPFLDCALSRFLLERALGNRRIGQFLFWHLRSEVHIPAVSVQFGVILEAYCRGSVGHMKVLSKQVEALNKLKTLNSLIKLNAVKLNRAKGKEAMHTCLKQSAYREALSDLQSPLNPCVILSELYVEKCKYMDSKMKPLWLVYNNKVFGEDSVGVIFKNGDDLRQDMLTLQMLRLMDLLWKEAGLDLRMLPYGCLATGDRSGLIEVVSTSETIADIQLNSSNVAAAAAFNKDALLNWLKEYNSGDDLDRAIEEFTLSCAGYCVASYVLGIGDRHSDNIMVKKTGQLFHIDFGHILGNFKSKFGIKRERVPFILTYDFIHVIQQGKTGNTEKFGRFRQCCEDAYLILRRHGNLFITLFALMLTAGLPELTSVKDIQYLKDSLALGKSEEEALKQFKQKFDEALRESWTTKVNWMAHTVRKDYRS
PI3K-β, sequence (P27986 whole entry partner): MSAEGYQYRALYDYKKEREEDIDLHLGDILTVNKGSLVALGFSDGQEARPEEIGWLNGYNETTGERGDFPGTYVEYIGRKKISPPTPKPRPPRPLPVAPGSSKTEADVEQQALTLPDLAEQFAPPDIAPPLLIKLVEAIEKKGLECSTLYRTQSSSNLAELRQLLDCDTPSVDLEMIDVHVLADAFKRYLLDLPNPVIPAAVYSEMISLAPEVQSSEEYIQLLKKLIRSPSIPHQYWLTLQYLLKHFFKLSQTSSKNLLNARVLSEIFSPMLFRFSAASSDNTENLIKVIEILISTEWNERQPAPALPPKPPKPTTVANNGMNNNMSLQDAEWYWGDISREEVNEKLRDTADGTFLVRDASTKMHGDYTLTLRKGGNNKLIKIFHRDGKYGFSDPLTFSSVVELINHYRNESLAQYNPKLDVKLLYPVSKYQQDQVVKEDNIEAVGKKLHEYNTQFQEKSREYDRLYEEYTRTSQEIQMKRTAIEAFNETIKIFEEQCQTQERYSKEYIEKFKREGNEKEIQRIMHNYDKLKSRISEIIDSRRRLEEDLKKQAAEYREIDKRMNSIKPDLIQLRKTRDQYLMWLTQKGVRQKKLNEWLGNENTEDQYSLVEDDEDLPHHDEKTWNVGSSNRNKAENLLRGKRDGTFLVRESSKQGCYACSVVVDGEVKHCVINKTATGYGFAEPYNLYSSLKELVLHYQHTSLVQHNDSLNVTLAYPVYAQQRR
PI3K-α, sequence (P42336 whole entry): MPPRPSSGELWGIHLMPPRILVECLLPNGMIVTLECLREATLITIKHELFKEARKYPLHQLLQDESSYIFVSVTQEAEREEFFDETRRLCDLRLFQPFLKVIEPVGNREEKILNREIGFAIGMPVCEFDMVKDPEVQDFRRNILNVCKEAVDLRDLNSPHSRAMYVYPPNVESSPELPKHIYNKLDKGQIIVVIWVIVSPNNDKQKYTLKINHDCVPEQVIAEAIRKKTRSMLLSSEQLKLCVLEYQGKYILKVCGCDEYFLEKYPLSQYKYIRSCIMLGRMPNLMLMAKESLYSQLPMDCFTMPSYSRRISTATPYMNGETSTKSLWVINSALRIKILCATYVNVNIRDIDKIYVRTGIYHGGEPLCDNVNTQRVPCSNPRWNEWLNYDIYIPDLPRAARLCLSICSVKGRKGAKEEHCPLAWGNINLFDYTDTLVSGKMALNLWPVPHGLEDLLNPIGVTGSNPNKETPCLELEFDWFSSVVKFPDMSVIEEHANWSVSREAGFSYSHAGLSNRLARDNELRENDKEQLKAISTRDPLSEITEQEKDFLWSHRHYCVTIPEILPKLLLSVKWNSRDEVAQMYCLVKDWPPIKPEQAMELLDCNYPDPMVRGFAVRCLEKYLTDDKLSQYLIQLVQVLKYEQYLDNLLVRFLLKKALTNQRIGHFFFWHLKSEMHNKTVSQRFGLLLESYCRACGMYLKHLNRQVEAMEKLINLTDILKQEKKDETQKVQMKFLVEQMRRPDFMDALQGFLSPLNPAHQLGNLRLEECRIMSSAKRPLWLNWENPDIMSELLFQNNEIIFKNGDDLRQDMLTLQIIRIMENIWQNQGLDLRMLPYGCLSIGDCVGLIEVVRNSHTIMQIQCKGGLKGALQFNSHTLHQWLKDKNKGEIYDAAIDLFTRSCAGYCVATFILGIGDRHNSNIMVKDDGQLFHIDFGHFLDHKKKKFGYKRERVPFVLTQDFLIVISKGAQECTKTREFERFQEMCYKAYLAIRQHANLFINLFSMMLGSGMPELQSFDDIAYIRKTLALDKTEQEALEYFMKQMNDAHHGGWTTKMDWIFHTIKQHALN
PI3K-α, sequence (P27986 whole entry partner): as the sequence (P27986 whole entry partner) above
PI3K-δ, sequence (O00329 whole entry): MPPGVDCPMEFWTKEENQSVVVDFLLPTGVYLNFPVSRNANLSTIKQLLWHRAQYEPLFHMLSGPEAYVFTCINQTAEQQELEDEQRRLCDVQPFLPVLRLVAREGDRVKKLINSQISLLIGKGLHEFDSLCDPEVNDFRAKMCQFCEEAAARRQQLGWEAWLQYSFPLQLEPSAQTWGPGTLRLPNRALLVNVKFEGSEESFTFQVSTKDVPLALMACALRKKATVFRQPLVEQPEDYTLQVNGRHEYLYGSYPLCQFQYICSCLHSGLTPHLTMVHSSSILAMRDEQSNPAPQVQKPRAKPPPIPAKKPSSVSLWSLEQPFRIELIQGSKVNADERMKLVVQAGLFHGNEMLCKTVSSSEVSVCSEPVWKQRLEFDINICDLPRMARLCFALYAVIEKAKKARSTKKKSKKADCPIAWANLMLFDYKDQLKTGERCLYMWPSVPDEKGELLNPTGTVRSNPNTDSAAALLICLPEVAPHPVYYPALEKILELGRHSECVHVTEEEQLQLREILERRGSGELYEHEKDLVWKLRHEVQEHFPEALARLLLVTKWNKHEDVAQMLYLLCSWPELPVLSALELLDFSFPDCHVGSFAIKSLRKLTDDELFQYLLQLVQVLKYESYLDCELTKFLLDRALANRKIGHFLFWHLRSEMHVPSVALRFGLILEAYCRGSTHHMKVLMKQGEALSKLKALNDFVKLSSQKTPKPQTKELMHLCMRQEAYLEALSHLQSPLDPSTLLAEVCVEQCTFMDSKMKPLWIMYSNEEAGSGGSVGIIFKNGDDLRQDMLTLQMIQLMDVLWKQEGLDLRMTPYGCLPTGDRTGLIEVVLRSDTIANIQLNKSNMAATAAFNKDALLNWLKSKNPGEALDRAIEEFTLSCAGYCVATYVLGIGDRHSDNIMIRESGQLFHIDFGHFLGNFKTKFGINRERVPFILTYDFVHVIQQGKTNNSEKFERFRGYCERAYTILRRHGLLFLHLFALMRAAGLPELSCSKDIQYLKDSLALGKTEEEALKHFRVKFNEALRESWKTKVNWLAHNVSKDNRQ
PI3K-δ, sequence (P27986 whole entry partner): as the sequence (P27986 whole entry partner) above

- IC50 (PI3K-γ; read-out: IC50 (nM) PI3K-γ, ADP-Glo, ATP 10 μM): 52 nM
- IC50 (PI3K-α; read-out: IC50 (nM) PI3K-α, ADP-Glo, ATP 10 μM): 248 nM
- IC50 (PI3K-β; read-out: IC50 (nM) PI3K-β, ADP-Glo, ATP 30 μM): 296 nM
- IC50 (PI3K-δ; read-out: IC50 (nM) PI3K-δ, ADP-Glo, ATP 10 μM): 438 nM
SMILES: COc1ccc(-c2cc(C(=O)NN=C(/C=C\c3ccc(Cl)cc3)c3ccc(N)cc3)c3ccccc3n2)cc1 [Compound 9i, N’-((Z)-1-(4-Aminophenyl)-3-(4-chlorophenyl)allylidene)-2-(4-methoxphenyl)quinoline-4-carbohydrazide]
- GI50 (CCRF-CEM; Leukemia, five dose assay): 5840 nM
- GI50 (HL-60(TB); Leukemia, HL-60(TB), five dose assay): 2540 nM
- GI50 (SR; Leukemia, five dose assay): 595 nM
- GI50 (HOP-92; [7]): 1920 nM
- GI50 (NCI-H226; [7]): 7540 nM
- GI50 (NCI-H460; [7]): 1890 nM
- GI50 (COLO 205; Colon cancer, five dose assay): 1990 nM
- GI50 (HCC-2998; Colon cancer, HCC-2998, five dose assay): 3400 nM
- GI50 (HCT-116; Colon cancer, five dose assay): 1410 nM
- GI50 (HT29; Colon cancer, HT29, five dose assay): 1130 nM
- GI50 (KM12; Colon cancer, five dose assay): 1150 nM
- GI50 (SW-620; Colon cancer, five dose assay): 1240 nM
- GI50 (SF-268; CNS cancer, five dose assay): 2190 nM
- GI50 (SF-539; CNS cancer, five dose assay): 1410 nM
- GI50 (SNB-75; CNS cancer, five dose assay): 371 nM
- GI50 (LOX IMVI; Melanoma, five dose assay): 1560 nM
- GI50 (MALME-3M; Melanoma, MALME-3M, five dose assay): > 100000 nM
- GI50 (MDA-MB-435; Melanoma, five dose assay): 305 nM
- GI50 (SK-MEL-2; Melanoma, five dose assay): 2030 nM
- GI50 (SK-MEL-5; Melanoma, five dose assay): 701 nM
- GI50 (UACC-257; Melanoma, five dose assay): > 100000 nM
- GI50 (OVCAR-3; [8]): 462 nM
- GI50 (OVCAR-8; [8]): 4160 nM
- GI50 (NCI/ADR-RES; [8]): 519 nM
- GI50 (786–0; Renal cancer, 786–0, five dose assay): 1840 nM
- GI50 (TK-10; Renal cancer, five dose assay): 52300 nM
- GI50 (UO-31; Renal cancer, five dose assay): 1550 nM
- GI50 (MCF7; Breast cancer, five dose assay): 442 nM
- GI50 (BT-549; Breast cancer, five dose assay): 2040 nM
- GI50 (T-47D; Breast cancer, T-47D, five dose assay): 2700 nM
- GI50 (MDA-MB-468; Breast cancer, five dose assay): 2950 nM
- mean growth inhibition (NCI 60 cell lines; 10 μM single dose, mean over NCI 60 cell lines): 73.03%
- percentage of cells in the G2/M phase (K-562 cells; 1 μM): 2.95%
- percentage of cells in the G2/M phase (K-562 cells; 3 μM): 30.7%
- percentage of cells in the G2/M phase (K-562 cells; 6 μM): 49.3%
- expression of non-functional p53 [1]: no effect
- expression of Cdc2 [1]: attenuated
- expression of cyclin B1 [1]: attenuated
- expression of p21 [1]: significantly induced
- levels of Bcl-2 [2]: decreased
- levels of cleaved caspase 8 [2]: not altered
- levels of Bax [2]: increased
- levels of cleaved caspase 3 [2]: increased
- levels of cleaved caspase 9 [2]: increased
- levels of cleaved caspase 8 [3]: not change
- levels of Bax [3]: increased
- levels of cleaved caspase 3 [3]: increased
- levels of cleaved caspase 9 [3]: increased
- levels of phosphorylated Akt (at Ser473) [4]: decreases
- levels of phosphorylated GSK-3β [4]: decreases
- levels of phosphorylated PI3K (at Tyr458) [4]: decreases
- levels of phosphorylated mTOR (at Ser2448) [4]: decreases
- IC50 [5, 9]: 4 µM and 3.9 µM and 3.91 µM
- IC50 [6, 10]: 1.9 µM and 1.91 µM

- IC50 (PI3K-γ): 197 nM
- IC50 (PI3K-α): 271 nM
- IC50 (PI3K-β): 360 nM
- IC50 (PI3K-δ): 473 nM
SMILES: Cc1ccc(-c2cc(C(=O)NN=C(/C=C\c3ccc(Cl)cc3)c3ccc(N)cc3)c3ccccc3n2)cc1 [Compound 9j, N’-((Z)-1-(4-Aminophenyl)-3-(4-chlorophenyl)allylidene)-2-(4-methylphenyl)quinoline-4-carbohydrazide]
- GI50 (CCRF-CEM; Homo sapiens): 4530 nM
- GI50 (HL-60(TB); Homo sapiens, HL-60): 3490 nM
- GI50 (SR; Homo sapiens): 3290 nM
- GI50 (HOP-92; Homo sapiens): 4100 nM
- GI50 (NCI-H226; Homo sapiens): 6470 nM
- GI50 (NCI-H460; Homo sapiens): 3510 nM
- GI50 (COLO 205; Homo sapiens): 2800 nM
- GI50 (HCC-2998; Homo sapiens, HCC 2998): 4280 nM
- GI50 (HCT-116; Homo sapiens): 3180 nM
- GI50 (HT29; Homo sapiens, HT-29): 3350 nM
- GI50 (KM12; Homo sapiens): 3460 nM
- GI50 (SW-620; Homo sapiens): 4240 nM
- GI50 (SF-268; Homo sapiens): 4090 nM
- GI50 (SF-539; Homo sapiens): 2430 nM
- GI50 (SNB-75; Homo sapiens): 1410 nM
- GI50 (LOX IMVI; Homo sapiens): 4000 nM
- GI50 (MALME-3M; Homo sapiens, Malme-3M): > 100000 nM
- GI50 (MDA-MB-435; Homo sapiens): 1000 nM
- GI50 (SK-MEL-2; Homo sapiens): 3810 nM
- GI50 (SK-MEL-5; Homo sapiens): 2500 nM
- GI50 (UACC-257; Homo sapiens): 33700 nM
- GI50 (OVCAR-3; Homo sapiens): 2980 nM
- GI50 (OVCAR-8; Homo sapiens): 5250 nM
- GI50 (NCI/ADR-RES; Homo sapiens): 2540 nM
- GI50 (786–0; Homo sapiens, 786-0): 4220 nM
- GI50 (TK-10; Homo sapiens): 8510 nM
- GI50 (UO-31; Homo sapiens): 2200 nM
- GI50 (MCF7; Homo sapiens): 2530 nM
- GI50 (BT-549; Homo sapiens): 3920 nM
- GI50 (T-47D; Homo sapiens, T47D): 2730 nM
- GI50 (MDA-MB-468; Homo sapiens): 4910 nM
- inhibition at 10 µM (NCI 60 cell lines; Homo sapiens, 60 cell, read-out: mean growth inhibition): 74%
- percentage of cells in the G2/M phase (K-562 cells; 1 μM): 5.1%
- percentage of cells in the G2/M phase (K-562 cells; 3 μM): 16.6%
- percentage of cells in the G2/M phase (K-562 cells; 6 μM): 41.7%
- expression of non-functional p53 [1]: no effect
- expression of Cdc2 [1]: attenuated
- expression of cyclin B1 [1]: attenuated
- expression of p21 [1]: significantly induced
- levels of Bcl-2 [2]: decreased
- levels of cleaved caspase 8 [2]: not altered
- levels of Bax [2]: increased
- levels of cleaved caspase 3 [2]: increased
- levels of cleaved caspase 9 [2]: increased
- levels of cleaved caspase 8 [3]: not change
- levels of Bax [3]: increased
- levels of cleaved caspase 3 [3]: increased
- levels of cleaved caspase 9 [3]: increased
- levels of phosphorylated Akt (at Ser473) [4]: decreases
- levels of phosphorylated GSK-3β [4]: decreases
- levels of phosphorylated PI3K (at Tyr458) [4]: decreases
- levels of phosphorylated mTOR (at Ser2448) [4]: decreases
- IC50 ([5]; Homo sapiens, A549, 24 h, read-out: A549 (IC50 μM), trypan blue exclusion, mean ± SD): 5 µM
- IC50 [5, 9]: 5.29 ± 0.19 µM
- IC50 ([6]; Homo sapiens, K562, 24 h, read-out: K-562 (IC50 μM), trypan blue exclusion, mean ± SD): 2.7 µM
- IC50 [6, 10]: 2.67 ± 0.27 µM
